Measurements reported in patent publication US20120244601A1, “[…] INDUCIBLE GENE […]” (priority 2011, published 2012).

Tests used:
β-galactosidase = assay: β-Galactosidase activity assay in M. smegmatis; type: cell-based
GFP = type: cell-based, M. tuberculosis
M. smegmatis RiboS-katG = assay: Isoniazid antibiotic resistance assay, RiboS-katG strain
lacZ reporter gene = assay: β-galactosidase assay in B. subtilis; conditions: switches B and E compared
Method: B. subtilis strain JH642 (2) was grown at 37° C. in LB with shaking (250 rpm). […] To assay for β-galactosidase activity, strains harboring the riboswitches were grown overnight in LB media with 20 μg/mL kanamycin. In the morning, cells were diluted 1:100 into fresh selective media containing 1 mM IPTG and either 0 or 2 mM theophylline. β-galactosidase assays were performed by the method of Miller (13) using permeabilization with toluene. […] Error bars are ±SD.

Molecule: Cn1c(=O)c2[nH]cnc2n(C)c1=O [theophylline]
- theophylline concentration of maximum β-galactosidase reporter expression (β-galactosidase): ~2 mM
- theophylline concentration of maximal GFP expression (GFP): ~2 mM

Molecule: NNC(=O)c1ccncc1 [isoniazid]
- isoniazid EC50 with increasing theophylline concentrations (M. smegmatis RiboS-katG; 0-10 mM theophylline): the EC50 decreases
- isoniazid phenotype in the absence of theophylline (M. smegmatis RiboS-katG; no theophylline): isoniazid resistance phenotype

B1: Riboswitch B: synthetic theophylline-responsive riboswitch, mRNA sequence SEQ ID NO: 12 (nucleic acid)
chain: GGUACCGGUGAUACCAGCAUCGUCUUGAUGCCCUUGGCAGCACCCGCUGCGCAGGGGGUAUCAACAAGAUG
modifications: chemistry not fully specified
- activation ratios and levels of expression compared (lacZ reporter gene): comparable activation ratios, but substantially different levels of expression
